{"source": "ChEMBL document CHEMBL5625235", "about": "“Discovery of X10g as a selective PROTAC degrader of Hsp90α protein for treating breast cancer” (Eur J Med Chem, 2023)", "key": {"[1]": {"biological_target": "T1, Heat shock protein HSP 90-alpha (Homo sapiens, UniProt P07900)", "test": "Inhibition of 6His-tagged human HSP90alpha N-terminal domain (1 to 223 residues) expressed in Escherichia coli BL21 DE3 cells incubated for 24 hrs by fluorescence polarization assay"}, "[2]": {"biological_target": "Heat shock protein HSP 90-beta (Homo sapiens, UniProt P08238)", "sequence (P08238 whole entry)": "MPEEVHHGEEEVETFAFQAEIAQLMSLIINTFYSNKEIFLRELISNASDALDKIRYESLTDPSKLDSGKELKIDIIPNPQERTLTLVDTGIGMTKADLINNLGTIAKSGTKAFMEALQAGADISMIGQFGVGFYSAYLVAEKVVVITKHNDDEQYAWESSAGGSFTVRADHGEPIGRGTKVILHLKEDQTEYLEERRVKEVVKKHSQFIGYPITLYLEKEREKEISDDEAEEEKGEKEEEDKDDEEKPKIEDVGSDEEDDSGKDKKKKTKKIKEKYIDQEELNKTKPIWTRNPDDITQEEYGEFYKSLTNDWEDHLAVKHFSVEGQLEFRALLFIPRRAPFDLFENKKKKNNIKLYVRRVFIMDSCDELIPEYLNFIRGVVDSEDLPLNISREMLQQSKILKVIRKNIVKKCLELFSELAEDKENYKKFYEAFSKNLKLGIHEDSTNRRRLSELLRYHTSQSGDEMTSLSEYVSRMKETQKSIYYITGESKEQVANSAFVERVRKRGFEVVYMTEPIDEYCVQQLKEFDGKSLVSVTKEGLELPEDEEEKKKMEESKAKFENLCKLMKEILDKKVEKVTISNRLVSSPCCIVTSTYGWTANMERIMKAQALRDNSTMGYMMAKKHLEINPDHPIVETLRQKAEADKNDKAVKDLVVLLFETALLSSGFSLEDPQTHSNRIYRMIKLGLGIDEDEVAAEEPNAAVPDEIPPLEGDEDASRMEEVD", "test": "Inhibition of HSP90beta (unknown origin) incubated for 24 hrs by fluorescence polarization assay"}, "MX1": {"system": "MX1", "test": "Antiproliferative activity against human MX1 cells assessed as inhibition of cell proliferation incubated for 72 hrs by MTT assay", "assay_type": "functional, cell-based", "conditions": "MX1, 72 h"}, "MDA-MB-468": {"system": "MDA-MB-468", "test": "Antiproliferative activity against human MDA-MB-468 cells assessed as inhibition of cell proliferation incubated for 72 hrs by MTT assay", "assay_type": "functional, cell-based", "conditions": "MDA-MB-468, 72 h"}, "MCF7": {"system": "MCF7", "test": "Antiproliferative activity against human MCF7 cells assessed as inhibition of cell proliferation incubated for 72 hrs by MTT assay", "assay_type": "functional, cell-based", "conditions": "MCF7, 72 h"}, "MDA-MB-231": {"system": "MDA-MB-231", "test": "Antiproliferative activity against human MDA-MB-231 cells assessed as inhibition of cell proliferation incubated for 72 hrs by MTT assay", "assay_type": "functional, cell-based", "conditions": "MDA-MB-231, 72 h"}, "[3]": {"biological_target": "Protein cereblon/Heat shock protein HSP 90-beta (Homo sapiens) (UniProt P08238+Q96SW2)", "test": "PROTAC activity at CRBN/HSP90beta in human MCF7 cells assessed as induction of HSP90beta degradation at 0.5 uM incubated for 8 hrs by Western blot analysis", "assay_type": "cell-based"}, "[4]": {"biological_target": "Protein cereblon/Heat shock protein HSP 90-alpha (Homo sapiens, UniProt P07900+Q96SW2)", "test": "PROTAC activity at CRBN/HSP90alpha in human MCF7 cells assessed as induction of HSP90alpha degradation at 0.5 uM incubated for 8 hrs by Western blot analysis", "assay_type": "cell-based"}, "[5]": {"test": "Toxicity in BALB/c mouse implanted with mouse 4T1 cells assessed as effect on body weight at 50 mg/kg, ip administered twice a week and measured after 20 days", "assay_type": "organism-based", "conditions": "in vivo, 480 h, time 20 day"}, "4T1 [6]": {"system": "4T1", "test": "Antitumor activity against mouse 4T1 cells implanted in BALB/c mouse assessed as reduction in tumor weight at 50 mg/kg, ip administered twice a week and measured after 20 days", "assay_type": "functional, organism-based", "conditions": "time 20.0 day"}, "4T1 [7]": {"system": "4T1", "test": "Antitumor activity against mouse 4T1 cells implanted in BALB/c mouse assessed as tumor growth inhibition at 50 mg/kg, ip administered twice a week and measured after 20 days relative to control", "assay_type": "functional", "conditions": "4T1, 480 h, time 20 day, read-out: TGI"}, "[8]": {"biological_target": "T1, Heat shock protein HSP 90-alpha", "test": "Induction of HSP90alpha degradation in human MCF7 cells at 0.5 uM incubated for 8 hrs in presence of pomalidomide by Western blot analysis", "assay_type": "cell-based"}, "[9]": {"biological_target": "T1, Heat shock protein HSP 90-alpha", "test": "Induction of HSP90alpha degradation in human MCF7 cells at 0.5 uM incubated for 8 hrs by Western blot analysis", "assay_type": "cell-based"}}, "note": "The source made the active and inactive calls. The rule behind the calls is not given here.", "data": [{"compound": "CC(C)c1ccc(O)c(C(=O)N2Cc3ccccc3C2)c1", "values": [{"measurement": "IC50", "setting": "[1]", "value": 3.21, "unit": "µM"}, {"measurement": "IC50", "setting": "[2]", "value": 1.6, "unit": "µM"}]}, {"compound": "Nc1cccc2c1CN(C1CCC(=O)NC1=O)C2=O", "note": "(stereo not given) [LENALIDOMIDE]", "values": [{"measurement": "IC50", "setting": "MX1", "value": "> 100", "unit": "µM"}, {"measurement": "IC50", "setting": "MDA-MB-468", "value": "> 100", "unit": "µM"}, {"measurement": "IC50", "setting": "MCF7", "value": "> 100", "unit": "µM"}, {"measurement": "IC50", "setting": "MDA-MB-231", "value": "> 100", "unit": "µM"}]}, {"compound": "CC(C)c1cc(C(=O)N2Cc3ccc(CN4CCN(CCC(=O)Nc5cccc6c5C(=O)N(C5CCC(=O)NC5=O)C6=O)CC4)cc3C2)ccc1O", "note": "(stereo not given)", "values": [{"measurement": "IC50", "setting": "MX1", "value": "> 100", "unit": "µM"}, {"measurement": "IC50", "setting": "MDA-MB-468", "value": "> 100", "unit": "µM"}, {"measurement": "IC50", "setting": "MCF7", "value": 27.1, "unit": "µM"}, {"measurement": "IC50", "setting": "MDA-MB-231", "value": "> 100", "unit": "µM"}]}, {"compound": "CC(C)c1cc(C(=O)N2Cc3ccc(CN4CCN(CCCCCCC(=O)Nc5cccc6c5C(=O)N(C5CCC(=O)NC5=O)C6=O)CC4)cc3C2)c(O)cc1O", "note": "(stereo not given)", "values": [{"measurement": "IC50", "setting": "MX1", "value": 0.31, "unit": "µM"}, {"measurement": "Activity", "setting": "[3]", "value": "inactive"}, {"measurement": "Activity", "setting": "[4]", "value": "inactive"}, {"measurement": "IC50", "setting": "MDA-MB-468", "value": 3.67, "unit": "µM"}, {"measurement": "IC50", "setting": "MCF7", "value": 0.92, "unit": "µM"}, {"measurement": "IC50", "setting": "MDA-MB-231", "value": 12.1, "unit": "µM"}]}, {"compound": "CC(C)c1cc(C(=O)N2Cc3ccc(CN4CCN(CCCCC(=O)Nc5cccc6c5C(=O)N(C5CCC(=O)NC5=O)C6=O)CC4)cc3C2)c(O)cc1O", "note": "(stereo not given)", "values": [{"measurement": "IC50", "setting": "MX1", "value": 6.78, "unit": "µM"}, {"measurement": "Activity", "setting": "[3]", "value": "inactive"}, {"measurement": "Activity", "setting": "[4]", "value": "inactive"}, {"measurement": "IC50", "setting": "MDA-MB-468", "value": 5.27, "unit": "µM"}, {"measurement": "IC50", "setting": "MCF7", "value": 4.28, "unit": "µM"}, {"measurement": "IC50", "setting": "MDA-MB-231", "value": 18.8, "unit": "µM"}]}, {"compound": "CC(C)c1cc(C(=O)N2Cc3ccc(CN4CCN(CCCCCCCC(=O)Nc5cccc6c5C(=O)N(C5CCC(=O)NC5=O)C6=O)CC4)cc3C2)c(O)cc1O", "note": "(stereo not given)", "values": [{"measurement": "IC50", "setting": "MX1", "value": 4.94, "unit": "µM"}, {"measurement": "Activity", "setting": "[3]", "value": "inactive"}, {"measurement": "Activity", "setting": "[4]", "value": "inactive"}, {"measurement": "IC50", "setting": "MDA-MB-468", "value": 30.6, "unit": "µM"}, {"measurement": "IC50", "setting": "MCF7", "value": 6.03, "unit": "µM"}, {"measurement": "IC50", "setting": "MDA-MB-231", "value": 62.8, "unit": "µM"}]}, {"compound": "CC(C)c1cc(C(=O)N2Cc3ccc(CN4CCN(C(=O)CCCCCNc5cccc6c5CN(C5CCC(=O)NC5=O)C6=O)CC4)cc3C2)c(O)cc1O", "note": "(stereo not given)", "values": [{"measurement": "IC50", "setting": "MX1", "value": 1.93, "unit": "µM"}, {"measurement": "Activity", "setting": "[3]", "value": "inactive"}, {"measurement": "Activity", "setting": "[4]", "value": "inactive"}, {"measurement": "IC50", "setting": "MDA-MB-468", "value": 0.75, "unit": "µM"}, {"measurement": "IC50", "setting": "MCF7", "value": 4.47, "unit": "µM"}, {"measurement": "IC50", "setting": "MDA-MB-231", "value": 4.79, "unit": "µM"}]}, {"compound": "CC(C)c1cc(C(=O)N2Cc3ccc(CN4CCN(CCCCCCCC(=O)Nc5cccc6c5C(=O)N(C5CCC(=O)NC5=O)C6=O)CC4)cc3C2)ccc1O", "note": "(stereo not given)", "values": [{"measurement": "IC50", "setting": "MX1", "value": 63, "unit": "µM"}, {"measurement": "IC50", "setting": "MDA-MB-468", "value": 35.9, "unit": "µM"}, {"measurement": "IC50", "setting": "MCF7", "value": 18.5, "unit": "µM"}, {"measurement": "IC50", "setting": "MDA-MB-231", "value": "> 100", "unit": "µM"}]}, {"compound": "CC(C)c1cc(C(=O)N2Cc3ccc(CN4CCN(C(=O)CCCNc5cccc6c5CN(C5CCC(=O)NC5=O)C6=O)CC4)cc3C2)c(O)cc1O", "note": "(stereo not given)", "values": [{"measurement": "IC50", "setting": "MX1", "value": 1.19, "unit": "µM"}, {"measurement": "Activity", "setting": "[3]", "value": "inactive"}, {"measurement": "Activity", "setting": "[4]", "value": "inactive"}, {"measurement": "IC50", "setting": "MDA-MB-468", "value": 25.8, "unit": "µM"}, {"measurement": "IC50", "setting": "MCF7", "value": 3.42, "unit": "µM"}, {"measurement": "IC50", "setting": "MDA-MB-231", "value": 7.87, "unit": "µM"}]}, {"compound": "CC(C)c1cc(C(=O)N2Cc3ccccc3C2)ccc1O", "values": [{"measurement": "IC50", "setting": "[1]", "value": 0.41, "unit": "µM"}, {"measurement": "IC50", "setting": "[2]", "value": 4.47, "unit": "µM"}]}, {"compound": "CC(C)c1cc(C(=O)N2Cc3ccc(CN4CCN(C)CC4)cc3C2)c(O)cc1O", "note": "[ONALESPIB]", "values": [{"measurement": "Activity", "setting": "[5]", "value": "Toxic"}, {"measurement": "IC50", "setting": "MX1", "value": 0.5, "unit": "µM"}, {"measurement": "Activity", "setting": "4T1 [6]", "value": "Active"}, {"measurement": "inhibition in vivo at 50 mg/kg", "setting": "4T1 [7]", "value": 43.2, "unit": "%"}, {"measurement": "Activity", "setting": "[8]", "value": "inactive"}, {"measurement": "IC50", "setting": "MDA-MB-468", "value": 3.31, "unit": "µM"}, {"measurement": "Activity", "setting": "[9]", "value": "inactive"}, {"measurement": "IC50", "setting": "MCF7", "value": 0.84, "unit": "µM"}, {"measurement": "IC50", "setting": "MDA-MB-231", "value": 2.6, "unit": "µM"}]}]}
